Read-outs that look alike come from different tables or passages of the source.
Experiments:
Assay type in all cases: cell-based, human
MYB mRNA = assay: Splicing RT-qPCR assay, MYB canonical (CJ) and alternative (AJ) junction mRNA; conditions: Homo sapiens; for AC50: read-out: MYB AJ (AC50, increase in alternative junction mRNA)
Outline: (§1)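 A673 or K562 cells were treated 24 h at 37 °C with an 11-point 3-fold compound dilution series (top 10 uM, DMSO ≤0.25%). Lysates went to one-step RT-qPCR measuring canonical (CJ) and alternative-exon (AJ) junction transcripts, normalized to GAPDH, GUSB or PPIA.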

SMN2 mRNA = assay: Splicing RT-qPCR gene panel, SMN2 canonical junction (CJ) mRNA; conditions: Homo sapiens, Tables 4A/4B, read-out: SMN2 (IC50, decrease in CJ mRNA, gene panel)
Outline: (§2)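 A673 or K562 cells were treated 24 h at 37 °C with an 11-point 3-fold dilution series (top 10 uM, ≤0.25% DMSO). Canonical-junction mRNA was measured in lysates by one-step RT-qPCR, normalized to GAPDH, GUSB or PPIA and DMSO control (2^(−ΔΔCt)), expressed as percentage response.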

HTT mRNA [1] = assay: Splicing RT-qPCR assay, HTT canonical (CJ) and alternative (AJ) junction mRNA; conditions: Homo sapiens, A673 or K562 cells, 24 hours compound treatment; for IC50: 24 h, read-out: HTT CJ (IC50, decrease in canonical junction mRNA); for AC50: read-out: HTT AJ (AC50, increase in alternative junction mRNA)
Outline: as §1

HTT mRNA [2] = assay: Splicing RT-qPCR gene panel, HTT canonical junction (CJ) mRNA; conditions: Homo sapiens, Tables 4A/4B, read-out: HTT (IC50, decrease in CJ mRNA, gene panel)
Outline: as §2

Target C mRNA = assay: Splicing RT-qPCR gene panel, Target C canonical junction (CJ) mRNA; conditions: Homo sapiens, Tables 4A/4B, read-out: Target C (IC50, decrease in CJ mRNA, gene panel)
Outline: as §2

[3] = 24 h, A673 or K562 cells, 24 hours compound treatment, RT-qPCR
[4] = 24 h, A673 or K562 cells, 24 hours compound treatment, RT-qPCR, read-out: MYB CJ (IC50, decrease in canonical junction mRNA)
[5] = Tables 4A/4B, canonical junction qPCR panel, read-out: MYB (IC50, decrease in CJ mRNA, gene panel)

SMILES | AC50 (MYB mRNA; [3]) | IC50 (MYB mRNA; [4]) | IC50 (MYB mRNA; [5]) | IC50 (SMN2 mRNA) | IC50 (HTT mRNA [1]) | AC50 (HTT mRNA [1]) | IC50 (HTT mRNA [2]) | IC50 (Target C mRNA)
CNc1cc(N2CCNCC2)c2cn(C)nc2c1C(=O)Nc1cc(F)c2nc(C)cn2c1 [Compound 362, N-{8-fluoro-2-methylimidazo[1,2-a]pyridin-6-yl}-2-methyl-6-(methylamino)-4-(piperazin-1-yl) indazole-7-carboxamide] | 1000 to 10000 nM | 1000 to 10000 nM | 1000 to 10000 nM | 100 to 1000 nM | > 10000 nM | > 10000 nM | > 10000 nM | > 10000 nM
Cc1cn2cc(NC(=O)c3ccc(N4CCNCC4)c4cn(CC(C)(F)F)nc34)cc(F)c2n1 [Compound 364, 2-(2,2-difluoropropyl)-N-{8-fluoro-2-methylimidazo[1,2-a]pyridin-6-yl}-4-(piperazin-1-yl) indazole-7-carboxamide; trifluoroacetic acid] | 100 to 1000 nM | 1000 to 10000 nM | 1000 to 10000 nM | < 100 nM | 1000 to 10000 nM | > 10000 nM | 1000 to 10000 nM | > 10000 nM
Cc1cn2cc(NC(=O)c3ccc(N4CCNCC4)c4cn(Cc5cnco5)nc34)cc(F)c2n1 [Compound 366, N-{8-fluoro-2-methylimidazo[1,2-a]pyridin-6-yl}-2-(1,3-oxazol-5-ylmethyl)-4-(piperazin-1-yl) indazole-7-carboxamide] | < 100 nM | < 100 nM | < 100 nM | < 100 nM | 1000 to 10000 nM | 1000 to 10000 nM | 1000 to 10000 nM | > 10000 nM
COC(C)Cn1cc2c(N3CCNCC3)ccc(C(=O)Nc3cc(F)c4nc(C)cn4c3)c2n1 (stereo not shown) [Compound 367, N-{8-fluoro-2-methylimidazo[1,2-a]pyridin-6-yl}-2-(2-methoxypropyl)-4-(piperazin-1-yl) indazole-7-carboxamide; trifluoroacetic acid] | 100 to 1000 nM | 100 to 1000 nM | 100 to 1000 nM | < 100 nM | 1000 to 10000 nM | 1000 to 10000 nM | 1000 to 10000 nM | > 10000 nM
Cc1cn2cc(NC(=O)c3ccc(N4CCNCC4)c4cn(Cc5cn(C)nn5)nc34)cc(F)c2n1 [Compound 368, N-{8-fluoro-2-methylimidazo[1,2-a]pyridin-6-yl}-2-[(1-methyl-1,2,3-triazol-4-yl)methyl]-4-(piperazin-1-yl) indazole-7-carboxamide; trifluoroacetic acid] | 100 to 1000 nM | 100 to 1000 nM | 100 to 1000 nM | < 100 nM | > 10000 nM | > 10000 nM | > 10000 nM | > 10000 nM
Cc1cn2cc(NC(=O)c3ccc(N4CCC(NCCO)CC4)c4cn(C)nc34)cc(F)c2n1 [Compound 369, N-{8-fluoro-2-methylimidazo[1,2-a]pyridin-6-yl}-4-{4-[(2-hydroxyethyl)amino]piperidin-1-yl}-2-methylindazole-7-carboxamide] | < 100 nM | < 100 nM | < 100 nM | < 100 nM | 100 to 1000 nM | 100 to 1000 nM | 100 to 1000 nM | 1000 to 10000 nM
Cc1cn2cc(NC(=O)c3ccc(N4CCC(N)(C(F)(F)F)CC4)c4cn(C)nc34)cc(F)c2n1 [Compound 370, 4-[4-amino-4-(trifluoromethyl)piperidin-1-yl]-N-{8-fluoro-2-methylimidazo[1,2-a]pyridin-6-yl}-2-methylindazole-7-carboxamide] | 1000 to 10000 nM | 100 to 1000 nM | 100 to 1000 nM | 100 to 1000 nM | > 10000 nM | > 10000 nM | > 10000 nM | > 10000 nM
Cc1cn2cc(NC(=O)c3ccc(N4CC[C@@H](NC5CC5)C4)c4cn(C)nc34)cc(F)c2n1 [Compound 371, 4-[(3R)-3-(cyclopropylamino)pyrrolidin-1-yl]-N-{8-fluoro-2-methylimidazo[1,2-a]pyridin-6-yl}-2-methylindazole-7-carboxamide] | < 100 nM | < 100 nM | < 100 nM | < 100 nM | 100 to 1000 nM | 100 to 1000 nM | > 10000 nM | > 10000 nM
Cc1cn2cc(NC(=O)c3ccc(N4CC[C@H](NC5CC5)C4)c4cn(C)nc34)cc(F)c2n1 [Compound 372, 4-[(3S)-3-(cyclopropylamino)pyrrolidin-1-yl]-N-{8-fluoro-2-methylimidazo[1,2-a]pyridin-6-yl}-2-methylindazole-7-carboxamide] | < 100 nM | < 100 nM | < 100 nM | < 100 nM | 1000 to 10000 nM | 1000 to 10000 nM | > 10000 nM | > 10000 nM
Cc1cn2cc(NC(=O)c3ccc(N4CCC(NC5(CF)CC5)C4)c4cn(C)nc34)cc(F)c2n1 (stereo not shown) [Compound 373, N-{8-fluoro-2-methylimidazo[1,2-a]pyridin-6-yl}-4-(3-{[1-(fluoromethyl)cyclopropyl]amino}pyrrolidin-1-yl)-2-methylindazole-7-carboxamide] | < 100 nM | < 100 nM | < 100 nM | < 100 nM | 1000 to 10000 nM | 1000 to 10000 nM | 1000 to 10000 nM | > 10000 nM
CCn1cc2c(N3CCC(NC)C3)ccc(C(=O)Nc3cc(F)c4nc(C)cn4c3)c2n1 (stereo not shown) [Compound 374, 2-ethyl-N-{8-fluoro-2-methylimidazo[1,2-a]pyridin-6-yl}-4-[3-(methylamino)pyrrolidin-1-yl]indazole-7-carboxamide] | < 100 nM | < 100 nM | < 100 nM | < 100 nM | > 10000 nM | > 10000 nM | > 10000 nM | > 10000 nM
CCn1cc2c(N3CCC(N(C)C)C3)ccc(C(=O)Nc3cc(F)c4nc(C)cn4c3)c2n1 (stereo not shown) [Compound 375, 4-[3-(dimethylamino)pyrrolidin-1-yl]-2-ethyl-N-{8-fluoro-2-methylimidazo[1,2-a]pyridin-6-yl}indazole-7-carboxamide] | 100 to 1000 nM | 100 to 1000 nM | 100 to 1000 nM | < 100 nM | 100 to 1000 nM | 100 to 1000 nM | 100 to 1000 nM | 100 to 1000 nM
CCn1cc2c(N3CCC(NC4CC4)CC3)ccc(C(=O)Nc3cc(F)c4nc(C)cn4c3)c2n1 [Compound 376, 4-[4-(cyclopropylamino)piperidin-1-yl]-2-ethyl-N-{8-fluoro-2-methylimidazo[1,2-a]pyridin-6-yl}indazole-7-carboxamide] | 100 to 1000 nM | 100 to 1000 nM | < 100 nM | < 100 nM | 100 to 1000 nM | 1000 to 10000 nM | 1000 to 10000 nM | > 10000 nM
CCn1cc2c(N3C[C@@H](C)N[C@@H](C)C3)ccc(C(=O)Nc3cc(F)c4nc(C)cn4c3)c2n1 [Compound 377, 4-[(3R,5S)-3,5-dimethylpiperazin-1-yl]-2-ethyl-N-{8-fluoro-2-methylimidazo[1,2-a]pyridin-6-yl}indazole-7-carboxamide] | 100 to 1000 nM | 100 to 1000 nM | < 100 nM | < 100 nM | 1000 to 10000 nM | 1000 to 10000 nM | 1000 to 10000 nM | 1000 to 10000 nM

Reference: US20250154169A1, “COMPOUNDS AND METHODS FOR MODULATING SPLICING” (REMIX THERAPEUTICS INC., priority 2021, published 2025)
